# According to article PMC10179080, “In Vivo and In Vitro Characterization of Close Analogs of Compound KA-11, a New Antiseizure Drug Candidate” (International Journal of Molecular Sciences, 2023):
# Experiments:
# [1] = Metabolic stability in human liver microsomes; format: in vitro ADME; conditions: pH 7.4, 120 min, TRIS buffer pH 7.4, 37 °C, read-out: Metabolic stability (% remaining after incubation with HLMs)
# Experimental: The assays and protocols used for evaluating the KA-232 ADME-Tox parameters were similar to those described previously for compound KA-11 [6].
# Figure S3 The MetaSite 6.0.1. software prediction of the most probably sites of KA-232
# metabolism. The darker red color - the higher probability to be involved in the metabolism
# pathway. The blue circle marked the site of compound with the highest probability of metabolic
# Figure S4 UPLC spectra after 120 min incubation of compound KA-232 with human liver
# microsomes in TRIS buffer pH=7.4 at 37 °C.
# reaction mixture. Three metabolites M1, M2 and M3 were identified as well as the products
# (m/z= 382.18, m/z=445.23) of compound degradation in physiological buffers (see also Figure […]
# [2] = Stability in PBS buffer during PAMPA incubation; format: physicochemical; conditions: 5 h incubation in PAMPA plate, PBS pH 7.4, RT
# [3] = tested on: tonic–clonic seizures in mice; assay: Maximal electroshock seizure (MES) test; format: in vivo
# Experimental: The experiments were conducted on adult male albino Swiss mice weighing 22–26 g. The animals were kept in colony cages under standardized laboratory conditions: natural light–dark cycle 12/12 h, temperature 20–24 °C, air humidity 45–65% and free access to tap water and food (chow pellets). After 7 days of adaptation to laboratory conditions, the animals were randomly assigned to experimental groups consisting of 8 mice. The experimental procedures described herein were approved by the Local Ethics Committee in Lublin, Poland (approval numbers: 71/2020 and 13/2021), and were conducted in accordance with EU Directive 2010/63/EU for animal experiments. All efforts were made to minimize animal suffering and to use only the number of animals necessary to produce reliable scientific data according to the 3Rs rule.
# All substances (except PTZ and tetracaine hydrochloride dissolved in water for injections) were suspended in a 1% solution of Tween 80 (Sigma-Aldrich, Saint Louis, MO, USA) in water for injections (Baxter, Warszawa, Poland) or 0.9% NaCl. All drugs were injected intraperitoneally (i.p.) 30 min before all seizure models with 1 mL syringes as a single injection, in a volume of 10 mL/kg. The pretreatment time (30 min) before testing for KA-228 and KA-232 was chosen based on the time to peak of maximum anticonvulsant activity of KA-11 from our previous studies.
# The tonic–clonic seizures in mice were evoked by an electric stimulus (an alternating current 25 mA, 50 Hz, maximum output voltage 500 V, 0.2 s) generated by a rodent shocker (Hugo Sachs Elektronik, Freiburg, Germany) and delivered via ear-clip electrodes. […] This experimental procedure has been described in detail in our previous studies.
# The ED50 or TD50 values for tested substances in the acute animal models of seizures were calculated using the computer log-probit analysis. Subsequently, the ED50 and TD50 values (±SEM) were statistically analyzed using one-way analysis of variance (ANOVA) followed by the post hoc Dunnett’s test for multiple comparisons. Differences among values were considered statistically significant if p < 0.05. GraphPad Prism version 8 for Windows (GraphPad Software, San Diego, CA, USA) was used as a statistical software program. The results obtained from the acute ivPTZ test and grip strength test were evaluated by a Student’s t test. Fisher’s exact probability test was used to analyze protection from tonic forelimb and hindlimb extension in the ivPTZ test.
# [4] = molecular target: GABAA (α1,β2,γ2) (agonist radioligand) (Homo sapiens, UniProt P14867+P47870); assay: Radioligand binding, GABAA
# Sequence of GABAA (α1,β2,γ2) (agonist radioligand) (P14867 28-456): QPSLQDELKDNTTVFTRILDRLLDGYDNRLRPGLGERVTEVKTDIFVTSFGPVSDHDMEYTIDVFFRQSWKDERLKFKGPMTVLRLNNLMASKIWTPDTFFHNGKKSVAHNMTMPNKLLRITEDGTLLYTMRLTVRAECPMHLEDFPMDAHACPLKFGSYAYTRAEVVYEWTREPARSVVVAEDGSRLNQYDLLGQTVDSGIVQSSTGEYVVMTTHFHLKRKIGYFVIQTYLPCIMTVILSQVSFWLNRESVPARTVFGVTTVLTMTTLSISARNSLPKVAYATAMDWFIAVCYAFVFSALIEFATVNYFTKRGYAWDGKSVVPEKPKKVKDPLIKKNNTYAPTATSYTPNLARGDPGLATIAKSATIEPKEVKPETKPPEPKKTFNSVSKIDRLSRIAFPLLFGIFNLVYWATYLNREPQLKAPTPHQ
# Sequence of GABAA (α1,β2,γ2) (agonist radioligand) (P47870 25-512 limits assumed): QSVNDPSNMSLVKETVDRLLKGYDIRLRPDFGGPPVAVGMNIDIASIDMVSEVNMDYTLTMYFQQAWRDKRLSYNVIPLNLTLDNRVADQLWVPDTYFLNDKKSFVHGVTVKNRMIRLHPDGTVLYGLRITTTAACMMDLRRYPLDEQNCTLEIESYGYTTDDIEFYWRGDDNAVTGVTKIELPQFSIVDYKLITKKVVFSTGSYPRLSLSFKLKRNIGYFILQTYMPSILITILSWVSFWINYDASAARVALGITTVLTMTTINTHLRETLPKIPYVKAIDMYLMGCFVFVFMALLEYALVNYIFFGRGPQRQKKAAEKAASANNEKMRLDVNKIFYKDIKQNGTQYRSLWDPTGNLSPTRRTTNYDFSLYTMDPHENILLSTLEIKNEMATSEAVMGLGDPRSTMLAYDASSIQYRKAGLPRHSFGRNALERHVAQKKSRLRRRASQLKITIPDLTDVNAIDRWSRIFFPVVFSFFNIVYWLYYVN
# Sequence of GABAA (α1,β2,γ2) (agonist radioligand) (P18507 40-475 partner): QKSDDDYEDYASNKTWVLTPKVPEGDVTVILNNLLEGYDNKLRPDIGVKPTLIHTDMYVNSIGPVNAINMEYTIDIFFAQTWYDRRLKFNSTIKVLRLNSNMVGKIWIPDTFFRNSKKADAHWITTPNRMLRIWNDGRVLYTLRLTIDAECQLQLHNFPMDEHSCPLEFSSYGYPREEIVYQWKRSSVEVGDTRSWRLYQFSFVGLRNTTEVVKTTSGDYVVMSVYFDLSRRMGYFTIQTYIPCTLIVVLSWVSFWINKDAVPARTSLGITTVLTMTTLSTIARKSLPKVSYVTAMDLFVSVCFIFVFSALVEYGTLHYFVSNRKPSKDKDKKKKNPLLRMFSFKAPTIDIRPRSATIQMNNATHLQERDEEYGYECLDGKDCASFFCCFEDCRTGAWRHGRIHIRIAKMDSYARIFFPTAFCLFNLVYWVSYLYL
structure (smiles),measurement,setting,value
"CC(C(=O)N1CCN(c2cccc(C(F)(F)F)c2)CC1)N1C(=O)CC(N(C)C)C1=O.Cl (stereo not drawn) [KA-232, 3-(Dimethylamino)-1-(1-oxo-1-(4-(3-(trifluoromethyl)phenyl)piperazin-1-yl)propan-2-yl)pyrrolidine-2,5-dione hydrochloride]",remaining at 2 h,[1],~73%
same,stability in physiological buffer,[2],"some products of KA-232 degradation at the pyrrolidine-2,5-dione moiety were observed"
same,ED50,"[3]; Mus musculus, ip, 30 min before test, read-out: ED50 MES ± SD",61.8 ± 26.9 mg/kg
same,"TI (TD50/ED50), MES",[3]; i.p.,2.63
same,% Inhibition of Control Specific Binding,[4]; 10 µM,did not interact
same,inhibition at 10 µM,[4]; read-out: % Inhibition of Control Specific Binding,-6.7%
